Data: PubChem BioAssay AID1963974 (Molecular Pharmacology Branch, DTP, NCI, 2024)

Test system: 648629-189-R-J1-PDC spheroids with HUVEC/MSC, viability
Experiment: Anticancer human tumor 648629-189-R-J1-PDC patient-derived bladder carcinoma cell line growth inhibition [PI3K]
Conditions: for IC50: curve of first compound; for viability, T/C: stronger effect = lower value
Summary of the method: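 Multi-cell spheroids combine tumor cells with HUVEC and human MSCs, treated with targeted agents alone or with inavolisib, alpelisib, duvelisib or copanlisib. Concentrations fall in half-log steps from at or near clinical Cmax, or from 10 microM where Cmax is unknown; viability read-out.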
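Also: spheroids exposed to agents for seven days before reading.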
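For viability, T/C in this document: percent of vehicle control luminescence where 100% = DMSO treated spheroids.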

CC(=O)c1c(C)c2cnc(Nc3ccc(N4CCNCC4)cn3)nc2n(C2CCCC2)c1=O + CC(Nc1ncnc2nc[nH]c12)c1cc2cccc(Cl)c2c(=O)n1-c1ccccc1
IC50 (second compound 0.0316 µM): > 100 nM
IC50 (second compound 0.1 µM): > 100 nM
IC50 (second compound 0.316 µM): > 100 nM
IC50 (second compound 1 µM): > 100 nM
IC50 (second compound 3.16 µM): > 100 nM
IC50 (second compound 10 µM): > 100 nM
viability, T/C (second compound 0.0316 µM, first compound 0.000316 µM): 102%
viability, T/C (second compound 0.0316 µM, first compound 0.001 µM): 104%
viability, T/C (second compound 0.0316 µM, first compound 0.00316 µM): 101%
viability, T/C (second compound 0.0316 µM, first compound 0.01 µM): 92.1%
viability, T/C (second compound 0.0316 µM, first compound 0.0316 µM): 111%
viability, T/C (second compound 0.0316 µM, first compound 0.1 µM): 102%
viability, T/C (second compound 0.1 µM, first compound 0.000316 µM): 102%
viability, T/C (second compound 0.1 µM, first compound 0.001 µM): 99.2%
viability, T/C (second compound 0.1 µM, first compound 0.00316 µM): 98.5%
viability, T/C (second compound 0.1 µM, first compound 0.01 µM): 90.9%
viability, T/C (second compound 0.1 µM, first compound 0.0316 µM): 117%
viability, T/C (second compound 0.1 µM, first compound 0.1 µM): 116%
viability, T/C (second compound 0.316 µM, first compound 0.000316 µM): 93.1%
viability, T/C (second compound 0.316 µM, first compound 0.001 µM): 103%
viability, T/C (second compound 0.316 µM, first compound 0.00316 µM): 107%
viability, T/C (second compound 0.316 µM, first compound 0.01 µM): 107%
viability, T/C (second compound 0.316 µM, first compound 0.0316 µM): 111%
viability, T/C (second compound 0.316 µM, first compound 0.1 µM): 97.9%
viability, T/C (second compound 1 µM, first compound 0.000316 µM): 100%
viability, T/C (second compound 1 µM, first compound 0.001 µM): 97.4%
viability, T/C (second compound 1 µM, first compound 0.00316 µM): 109%
viability, T/C (second compound 1 µM, first compound 0.01 µM): 102%
viability, T/C (second compound 1 µM, first compound 0.0316 µM): 112%
viability, T/C (second compound 1 µM, first compound 0.1 µM): 98.9%
viability, T/C (second compound 3.16 µM, first compound 0.000316 µM): 90.8%
viability, T/C (second compound 3.16 µM, first compound 0.001 µM): 108%
viability, T/C (second compound 3.16 µM, first compound 0.00316 µM): 91.9%
viability, T/C (second compound 3.16 µM, first compound 0.01 µM): 113%
viability, T/C (second compound 3.16 µM, first compound 0.0316 µM): 101%
viability, T/C (second compound 3.16 µM, first compound 0.1 µM): 107%
viability, T/C (second compound 10 µM, first compound 0.000316 µM): 90.3%
viability, T/C (second compound 10 µM, first compound 0.001 µM): 92.2%
viability, T/C (second compound 10 µM, first compound 0.00316 µM): 95.3%
viability, T/C (second compound 10 µM, first compound 0.01 µM): 88.7%
viability, T/C (second compound 10 µM, first compound 0.0316 µM): 89.3%
viability, T/C (second compound 10 µM, first compound 0.1 µM): 94.3%
